Columns and labels:
Assay type in all cases: cell-based
[1] = test system: human mesenchymal stem cells; assay: Bone differentiation of human mesenchymal stem cells: amount of calcium accumulated in cells; settings: 15 days
Procedure: In addition, the amount of calcium accumulated in cells was examined. Simultaneously with inducing bone differentiation, 3 μM BIO or 10 μM BrdU was added, followed by adhesion culture for 15 days. After culture, cells were washed with PBS, followed by dissolving the cells in a solution consisting of 10 mM Tris-HCl and 0.2% TritonX-100. Using a portion of the solution, the protein concentration was measured employing BCA protein assay kit (Pierce). Hydrochloric acid was added to a final concentration of 0.5 N to the remaining solution, which was then shaken overnight. The amount of calcium dissolving in the solution containing 0.5 N hydrochloric acid was measured using Calcium E-test Kit Wako (Wako Pure Chemical Industries Ltd.). The amount of calcium used the value corrected for the amount of protein for analysis.

[2] = test system: human mesenchymal stem cells; assay: Bone differentiation of human mesenchymal stem cells: staining with alkaline phosphatase; settings: 8 days
Procedure: To further verify the influence of compounds on bone differentiation, staining with alkaline phosphatase was performed. Simultaneously with inducing bone differentiation, 3 μM BIO or 10 μM BrdU was added, followed by adhesion culture for 8 days. After culture, cells were fixed with 4% paraformaldehyde (Wako Pure Chemical Industries Ltd.) for 30 minutes and then washed 3 times with PBS. Alkaline phosphatase kit III (Vector Laboratories) was used according to the appended protocol to stain with alkaline phosphatase.

[3] = test system: human mesenchymal stem cells; assay: Bone differentiation of human mesenchymal stem cells: expression of Alp1, Runx2, Col1a1 and PTHR by quantitative RT-PCR; settings: 8 days; for level of expression of Alp1: 3 μM compound added with bone differentiation induction, relative to DMSO control
Procedure: Then, the influence of the selected compounds was examined on bone differentiation of human mesenchymal stem cells. The human mesenchymal stem cells were maintained and cultured using the same technique as in Example 6. Cells were seeded on a 96-well plate to 1,000 cells per well and then cultured overnight using the growth medium. Thereafter, the bone differentiation was induced by exchanging the medium with a medium made by addition of 10% calf fetal serum, 2 mM GlutaMAX-1, 10 mMβ-glycerophosphate (Wako Pure Chemical Industries Ltd.), 0.05 mM ascorbic acid-2-phosphate (Wako Pure Chemical Industries Ltd.), 0.1 μM dexamethasone (Wako Pure Chemical Industries Ltd.), and 1× penicillin-streptomycin (Sigma) to low-glucose DMEM. Simultaneously with inducing bone differentiation, each selected compound was added to a final concentration of 3 μM, followed by adhesion culture for 8 days. After the end of culture, the level of expression of Alkaline phosphatase (Alp1) as an initial osteoblast marker was measured using the same technique as in Example 1.
The expression of other bone differentiation markers for which BIO or BrdU was added was also examined. Adhesion culture was performed for 8 days after adding BIO or BrdU, followed by measuring the levels of expression of runt-related transcription factor 2 (Runx2), collagen type 1 alpha 1 (Col1a1), and parathyroid hormone receptor (PTHR) using the same technique as in Example 1.

[4] = test system: human mesenchymal stem cells; assay: Adipose differentiation of human mesenchymal stem cells: amount of adiponectin in culture solution, ELISA; settings: adhesion culture 8 days
Procedure: In addition, when each of the 3 compounds was added, the amount of adiponectin contained in a corresponding culture solution was measured. Simultaneously with inducing adipose differentiation, 10 μM Y-27632, 10 μM HA-100, or 3 μM capsazepine was added, followed by adhesion culture for 8 days. After culture, the amount of adiponectin contained in the culture solution was measured using a human adiponectin ELISA kit (R&D systems).

[5] = test system: human mesenchymal stem cells; assay: Adipose differentiation of human mesenchymal stem cells: expression of adiponectin and PPARγ by quantitative RT-PCR; settings: for level of expression of adiponectin: 3 μM compound added with adipose differentiation induction, 5 days, relative to DMSO control; for level of expression of PPARγ: adipose differentiation, 5 days (FIG. 12a)
Procedure: There was possibility that the selected compounds control the differentiation of adult stem cells as well as ES cells. Accordingly, the influence of these selected compounds was examined on adipose differentiation of human mesenchymal stem cells. The human mesenchymal stem cells were purchased from Lonza and subjected to adhesion culturing using a medium made by addition of 10% calf fetal serum, 2 mM GlutaMAX-1, and 1× penicillin-streptomycin (Sigma) (hereinafter referred to as “growth medium”) to low-glucose DMEM (Invitrogen). Upon induction of an adipose differentiation, cells were seeded on a 96-well plate to 3,000 cells per well and then cultured overnight using the growth medium. Thereafter, the adipose differentiation was induced by exchanging the growth medium with an adipose differentiation induction medium (i.e., a medium made by addition of 10% calf fetal serum, 2 mM GlutaMAX-1, 0.5 mM 3-isobutyl-1-methylxanthine (IBMX, Wako Pure Chemical Industries Ltd.), 10 μg/ml insulin (Wako Pure Chemical Industries Ltd.), 1 μM dexamethasone (Wako Pure Chemical Industries Ltd.), 200 μM indomethacin (Wako Pure Chemical Industries Ltd.), and 1× penicillin-streptomycin (Sigma) to high-glucose DMEM (Invitrogen)). Simultaneously with inducing adipose differentiation, each selected compound was added to a final concentration of 3 μM, followed by culture for 5 days. After 5 days, the level of expression of adiponectin as a fat cell marker was measured using the same technique as that described in Example 1.
In addition, the level of expression of PPARγ as a master regulator of adipose differentiation for which the 3 compounds (Y-27632, HA-100 and capsazepine) were each added was also measured using the same technique.

[6] = test system: human mesenchymal stem cells; assay: Adipose differentiation of human mesenchymal stem cells: fat droplet formation, oil red O staining; settings: adhesion culturing 5 days
Procedure: The influence of the 3 compounds on fat droplet formation was then examined. Simultaneously with inducing adipose differentiation, 10 μM Y-27632, 10 μM HA-100, or 3 μM capsazepine was added to an adipose differentiation induction medium, followed by adhesion culturing for 5 days. Thereafter, the cells were fixed with 4% paraformaldehyde (Wako Pure Chemical Industries Ltd.) for 30 minutes and then washed 3 times with PBS. In addition, the cells were stained with 0.36% oil red 0 (Chemicon) at room temperature for 50 minutes and then washed 3 times with distilled water, followed by observing and photographing the cell.

## O=C1Nc2cc(Br)ccc2/C1=C1/Nc2ccccc2/C1=N\O [BIO, 6-bromoindirubin-3′ oxime]
[1]; 3 μM compound
  amount of calcium in cells, corrected for amount of protein: increased the amount of calcium in cells
[2]; 3 μM compound
  stainability with alkaline phosphatase (alkaline phosphatase activity): increased the stainability with alkaline phosphatase
[3]
  level of expression of Alp1: noticeably increasing the level of expression of Alp1
[3]; 3 μM compound
  level of expression of Col1a1: noticeably increased
  level of expression of PTHR: noticeably increased
  level of expression of Runx2: noticeably increased

## O=c1[nH]c(=O)n([C@H]2C[C@H](O)[C@@H](CO)O2)cc1Br [BrdU, 5-Bromo-2′-deoxyuridine]
[1]; 10 μM compound
  amount of calcium in cells, corrected for amount of protein: increased the amount of calcium in cells
[2]; 10 μM compound
  stainability with alkaline phosphatase (alkaline phosphatase activity): increased the stainability with alkaline phosphatase
[3]
  level of expression of Alp1: noticeably increasing the level of expression of Alp1
[3]; 10 μM compound
  level of expression of Col1a1: noticeably increased
  level of expression of PTHR: noticeably increased
  level of expression of Runx2: noticeably increased

## O=S(=O)(c1cccc2cnccc12)N1CCNCC1 [HA-100]
[4]; 10 μM compound
  amount of adiponectin contained in the culture solution: noticeably increased the amount of adiponectin
[5]
  level of expression of adiponectin: increase the level of expression of adiponectin
  level of expression of PPARγ: increasing the level of expression of PPARγ in a concentration-dependent manner
[6]; 10 μM compound
  amount of fat droplets (oil red O) compared to DMSO control: the amount of fat droplets increased

## C[C@@H](N)[C@H]1CC[C@H](C(=O)Nc2ccncc2)CC1 [Y-27632]
[4]; 10 μM compound
  amount of adiponectin contained in the culture solution: noticeably increased the amount of adiponectin
[5]
  level of expression of adiponectin: increase the level of expression of adiponectin
  level of expression of PPARγ: increasing the level of expression of PPARγ in a concentration-dependent manner
[6]; 10 μM compound
  amount of fat droplets (oil red O) compared to DMSO control: the amount of fat droplets increased

## Oc1cc2c(cc1O)CN(C(=S)NCCc1ccc(Cl)cc1)CCC2 [capsazepine]
[4]; 3 μM compound
  amount of adiponectin contained in the culture solution: no action of increasing the amount of adiponectin
[5]
  level of expression of adiponectin: increase the level of expression of adiponectin
[6]; 3 μM compound
  amount of fat droplets (oil red O) compared to DMSO control: no noticeable activity of increasing fat droplet formation

Source: patent US20120142005A1, “METHOD FOR SCREENING OF REGENERATIVE MEDICINE” (TAKEDA PHARMACEUTICAL COMPANY LIMITED, priority 2009, published 2012)
